# Assay results taken from patent publication US9198433B2, “Substituted benzene fungicides” (E I DU PONT DE NEMOURS AND COMPANY, priority 2007, dated 2015).
# Like-named read-outs stand apart in the source and are kept apart here. Marks after values point to notes of the source that are not given here.
# What was measured:
# Format in all cases: in vivo
# Alternaria solani = experiment: Test H: tomato early blight, preventive spray on tomato seedlings, disease rating
# Procedure, shortened: (§1)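 Disease ratings follow a preventive run-off spray of tomato seedlings. Compounds were first dissolved in acetone (3% of volume), then suspended in 50/50 acetone/water containing 250 ppm Trem 014. Test level 200 ppm (equivalent to 500 g/ha) except where marked * for 40 ppm or ** for 50 ppm.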
# Septoria nodorum = experiment: Test C: wheat glume blotch, preventive spray on wheat seedlings, disease rating
# Procedure, shortened: (§2)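 Preventive spray to run-off on wheat seedlings; test suspension in acetone:water 50:50 plus 250 ppm surfactant, acetone predissolution at 3% of final volume. Dose 200 ppm (≈500 g/ha) by default, 40 ppm or 50 ppm where flagged.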
# [1] = test system: Puccinia recondita f. sp. tritici; experiment: Test B: wheat leaf rust, preventive spray on wheat seedlings, disease rating
# Procedure, shortened: as §2
# Septoria tritici = experiment: Test D: wheat leaf blotch, preventive spray on wheat seedlings, disease rating
# Procedure, shortened: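 Preventive test: one day after run-off spraying (200 ppm, equal to 500 g/ha, unless marked 40 or 50 ppm; acetone/water plus 250 ppm Trem 014), seedlings received S. tritici spore inoculum. Disease scored after 48 h at 24 °C in saturated air and 19 further days at 20 °C.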
# Fusarium graminearum = conditions: wheat head scab
# Botrytis cinerea = experiment: Test F: tomato Botrytis, preventive spray on tomato seedlings, disease rating
# Procedure, shortened: as §1
# [2] = test system: Erysiphe graminis f. sp. tritici; experiment: Test A: wheat powdery mildew, preventive spray on wheat seedlings, disease rating
# Procedure, shortened: as §2
# [3] = 200 ppm, 100 = 100% disease control, 0 = no control relative to controls
# [4] = 40 ppm (*), 100 = 100% disease control, 0 = no control relative to controls
Compound,"Percentage Disease Control, Test H (Alternaria solani; [3])","Percentage Disease Control, Test C (Septoria nodorum; [3])","Percentage Disease Control, Test B [1, 3]","Percentage Disease Control, Test D (Septoria tritici; [3])","Percentage Disease Control, Test F (Botrytis cinerea; [3])","Percentage Disease Control, Test A [2, 3]",also measured
COC(=O)NOc1cc(-c2cccc(Cl)c2)ccc1Cl [Cmpd 19],–,–,–,–,–,–,"Percentage Disease Control, Test H (Alternaria solani; 40 ppm (*)): 63* %; Percentage Disease Control, Test C (Septoria nodorum; 40 ppm (*)): 97* %; Percentage Disease Control, Test B ([1]; 40 ppm (*)): 99* %; Percentage Disease Control, Test D (Septoria tritici; 40 ppm (*)): 98* %; Percentage Disease Control, Test E (Fusarium graminearum; 40 ppm (*)): 99* %; Percentage Disease Control, Test F (Botrytis cinerea; 40 ppm (*)): 0* %; Percentage Disease Control, Test A ([2]; 40 ppm (*)): 99* %"
COC(=O)NCc1cc(-c2ccn(S(=O)(=O)N(C)C)n2)ccc1Cl [Cmpd 35],–,–,–,–,–,–,"Percentage Disease Control, Test H (Alternaria solani; 200 ppm): 0%; Percentage Disease Control, Test C (Septoria nodorum; 200 ppm): 0%; Percentage Disease Control, Test B ([1]; 200 ppm): 76%; Percentage Disease Control, Test D (Septoria tritici; 200 ppm): 100%; Percentage Disease Control, Test E (Fusarium graminearum; 200 ppm): 0%; Percentage Disease Control, Test F (Botrytis cinerea; 200 ppm): 0%; Percentage Disease Control, Test A ([2]; 200 ppm): 76%"
COC(=O)NCc1cc(-c2cn[nH]c2)ccc1Cl [Cmpd 127],0%,0%,9%,53%,0%,0%,–
COC(=O)NCc1cc(-c2cnn(Cc3ccccc3)c2)ccc1Cl [Cmpd 128],0%,82%,98%,–,0%,29%,"Percentage Disease Control, Test D (Septoria tritici; [4]): 96* %"
COC(=O)NCc1cc(-c2cnn(Cc3ccccc3Cl)c2)ccc1Cl [Cmpd 129],0%,90%,98%,–,0%,94%,"Percentage Disease Control, Test D (Septoria tritici; [4]): 92* %"
COC(=O)NCc1cc(-c2ccnc(Cl)n2)ccc1Cl [Cmpd 130],0%,92%,67%,96%,0%,80%,–
COC(=O)NCc1cc(-c2ccnc(-c3csc(C)n3)n2)ccc1Cl [Cmpd 131],0%,0%,0%,13%,0%,0%,–
COC(=O)NCc1cc(-c2ccnc(-c3ccc(C)cc3)n2)ccc1Cl [Cmpd 132],0%,–,–,–,0%,80%,"Percentage Disease Control, Test C (Septoria nodorum; [4]): 98* %; Percentage Disease Control, Test B [1, 4]: 95* %; Percentage Disease Control, Test D (Septoria tritici; [4]): 100* %"
COC(=O)NCc1cc(-c2ccnc(-c3cccc(C)c3)n2)ccc1Cl [Cmpd 133],0%,93%,93%,–,0%,94%,"Percentage Disease Control, Test D (Septoria tritici; [4]): 92* %"
COC(=O)NCc1cc(-c2ccnc(-c3ccccc3)n2)ccc1Cl [Cmpd 134],0%,–,84%,87%,0%,0%,"Percentage Disease Control, Test C (Septoria nodorum; [4]): 96* %"
COC(=O)NCc1cc(-c2ccnc(C3CC3)n2)ccc1Cl [Cmpd 137],15%,–,99%,–,0%,95%,"Percentage Disease Control, Test C (Septoria nodorum; [4]): 90* %; Percentage Disease Control, Test D (Septoria tritici; [4]): 97* %"
COC(=O)NCc1cc(-c2ccnc(C(F)(F)F)n2)ccc1Cl [Cmpd 138],0%,92%,48%,77%,0%,56%,–
COC(=O)NCc1cc(-c2ccnc(OCc3ccccc3)n2)ccc1Cl [Cmpd 139],26%,–,–,–,0%,87%,"Percentage Disease Control, Test C (Septoria nodorum; [4]): 99* %; Percentage Disease Control, Test B [1, 4]: 100* %; Percentage Disease Control, Test D (Septoria tritici; [4]): 92* %"
COC(=O)NCc1cc(-c2ccnn2-c2ccccc2)ccc1Cl [Cmpd 140],0%,0%,32%,96%,0%,0%,–
COC(=O)NCc1cc(-c2cc(C(F)(F)F)nn2C)ccc1Cl [Cmpd 141],0%,82%,89%,98%,0%,96%,–
COC(=O)NCc1cc(-c2cc(C(F)(F)F)nn2CCC(C)(C)C)ccc1Cl [Cmpd 142],16%,0%,55%,92%,0%,85%,–
CCCn1nc(C(F)(F)F)cc1-c1ccc(Cl)c(CNC(=O)OC)c1 [Cmpd 144],0%,0%,19%,95%,0%,97%,–
COC(=O)NCc1cc(-c2c[nH]nn2)ccc1Cl [Cmpd 145],15%,0%,0%,30%,0%,0%,–
COC(=O)NCc1cc(-c2cn(-c3ccc(Cl)cc3)nn2)ccc1Cl [Cmpd 148],0%,90%,–,–,46%,85%,"Percentage Disease Control, Test B [1, 4]: 90* %; Percentage Disease Control, Test D (Septoria tritici; [4]): 98* %"
COC(=O)NCc1cc(-c2cn(Cc3ccc(C)cc3)nn2)ccc1Cl [Cmpd 149],0%,100%,99%,99%,0%,0%,–
COC(=O)NCc1cc(-c2ccn(-c3ccc(C(C)=O)cc3)n2)ccc1Cl [Cmpd 150],92%,100%,98%,99%,0%,71%,–
COC(=O)NCc1cc(C(C)=NOC[Si](C)(C)C)ccc1Cl [Compound 6],–,–,–,–,–,–,"Percentage Disease Control, Test C (Septoria nodorum; 40 ppm (*)): 96* %; Percentage Disease Control, Test B ([1]; 40 ppm (*)): 100* %; Percentage Disease Control, Test D (Septoria tritici; 40 ppm (*)): 100* %; Percentage Disease Control, Test E (Fusarium graminearum; 40 ppm (*)): 68* %; Percentage Disease Control, Test A ([2]; 40 ppm (*)): 99* %"
CC[Si](C)(C)CON=C(C)c1ccc(Cl)c(CNC(=O)OC)c1 [Compound 7],–,–,–,–,–,–,"Percentage Disease Control, Test C (Septoria nodorum; 40 ppm (*)): 99* %; Percentage Disease Control, Test B ([1]; 40 ppm (*)): 100* %; Percentage Disease Control, Test D (Septoria tritici; 40 ppm (*)): 100* %; Percentage Disease Control, Test E (Fusarium graminearum; 40 ppm (*)): 0* %; Percentage Disease Control, Test A ([2]; 40 ppm (*)): 100* %"
COC(=O)NCc1cc(C(C)=NOC[Si](C)(C)c2ccccc2)ccc1Cl [Compound 15],–,–,–,–,–,–,"Percentage Disease Control, Test H (Alternaria solani; 200 ppm): 33%; Percentage Disease Control, Test C (Septoria nodorum; 40 ppm (*)): 100* %; Percentage Disease Control, Test B ([1]; 40 ppm (*)): 100* %; Percentage Disease Control, Test D (Septoria tritici; 40 ppm (*)): 100* %; Percentage Disease Control, Test F (Botrytis cinerea; 200 ppm): 0%; Percentage Disease Control, Test A ([2]; 40 ppm (*)): 100* %"
COC(=O)NCc1cc(C(C)=NOC[Si](C)(C)c2ccc(F)cc2)ccc1Cl [Compound 16],–,–,–,–,–,–,"Percentage Disease Control, Test H (Alternaria solani; 40 ppm (*)): 95* %; Percentage Disease Control, Test C (Septoria nodorum; 40 ppm (*)): 100* %; Percentage Disease Control, Test B ([1]; 40 ppm (*)): 100* %; Percentage Disease Control, Test D (Septoria tritici; 40 ppm (*)): 100* %; Percentage Disease Control, Test F (Botrytis cinerea; 200 ppm): 67%; Percentage Disease Control, Test A ([2]; 40 ppm (*)): 99* %"
COC(=O)NCc1cc(C(C)=NOC[Si](C)(C)Cc2ccccc2)ccc1Cl [Compound 17],–,–,–,–,–,–,"Percentage Disease Control, Test H (Alternaria solani; 200 ppm): 38%; Percentage Disease Control, Test C (Septoria nodorum; 200 ppm): 100%; Percentage Disease Control, Test B ([1]; 40 ppm (*)): 99* %; Percentage Disease Control, Test D (Septoria tritici; 40 ppm (*)): 100* %; Percentage Disease Control, Test F (Botrytis cinerea; 200 ppm): 0%; Percentage Disease Control, Test A ([2]; 200 ppm): 67%"
COC(=O)NCc1cc(-c2cnn(Cc3ccc(C)cc3)n2)ccc1Cl [Compound 146],22%,99%,93%,93%,0%,52%,–
COC(=O)NCc1cc(-c2cnn(-c3ccc(Cl)cc3)n2)ccc1Cl [Compound 147],15%,–,–,–,61%,–,"Percentage Disease Control, Test C (Septoria nodorum; [4]): 99* %; Percentage Disease Control, Test B [1, 4]: 99* %; Percentage Disease Control, Test D (Septoria tritici; [4]): 100* %; Percentage Disease Control, Test A [2, 4]: 100* %"
